pIC50: −log10 of the molar value.

By pIC50 is commonly meant −log10 of the IC50, conventionally taken in molar units. A high value points to a low IC50.

System in the first test: not listed separately
Description: Antiproliferative activity against human PC3 cells measured after 48 hrs by MTT assay. In kind it is functional, cell-based. The note with it: PC-3, 48 h.
The compound `COc1cc(-c2nnc(SCC(=O)Nc3ccccc3C)n2N)cc(OC)c1OC` had a negative logarithm of the IC50 (pIC50) below 4.00.
On the same count and under the same terms, under `COc1cc(-c2nnc(SCC(=O)NCCc3ccc(Cl)cc3)n2N)cc(OC)c1OC` stands below 4.00; under `COc1cc(-c2nnc(SCC(=O)c3ccccc3)n2N)cc(OC)c1OC`, below 4.00.
Same read-out and setting: next, `COc1cc(-c2nnc(SCC(=O)c3ccc(C(F)(F)F)cc3)n2N)cc(OC)c1OC`: below 4.00.
In the case of `COc1cc(-c2nnc(SCC(=O)c3ccc(Br)cc3)n2N)cc(OC)c1OC`, the pIC50 was below 4.00.
Same read-out and setting: under `COc1cc(-c2nnc(SCC(=O)Nc3ccccc3)n2N)cc(OC)c1OC` stands 4.42.
Still for that read-out and setting: under `COc1cc(NC(=O)CSc2nnc(-c3cc(OC)c(OC)c(OC)c3)n2N)cc(OC)c1OC` stands below 4.00.
`COc1cc(-c2nnc(SCC(=O)NCc3ccc(C)cc3)n2N)cc(OC)c1OC`: the pIC50 is 4.03.
Same read-out and setting: next, `COc1cc(-c2nnc(SCC(=O)Nc3ccc(C)cc3)n2N)cc(OC)c1OC`: 4.37.
The same measure, in the same setting: next, `COc1ccc(CNC(=O)CSc2nnc(-c3cc(OC)c(OC)c(OC)c3)n2N)cc1OC`: below 4.00; `COc1cc(-c2nnc(SCC(=O)NCc3ccc(Cl)cc3)n2N)cc(OC)c1OC`: below 4.00; `COc1cc(-c2nnc(SCC(=O)c3ccc(F)cc3)n2N)cc(OC)c1OC`: below 4.00.
The same measure, in the same setting: under `COc1cc(-c2nnc(SCC(=O)c3ccccc3F)n2N)cc(OC)c1OC` stands 4.37.

In the next test the test system is HEK293. Description: Cytotoxicity against HEK293 cells measured after 48 hrs by MTT assay. The note with it: Homo sapiens, HEK293, 48 h. In kind it is cell-based.
Regarding `COc1cc(-c2nnc(SCC(=O)Nc3ccc(C)cc3)n2N)cc(OC)c1OC`, the pIC50 is 4.10.

The next test relates to HepG2. Nature of the test: Antiproliferative activity against human HepG2 cells measured after 48 hrs by MTT assay. In kind it is functional, cell-based. The following applies: HepG2, 48 h. A general note: Formazan colour is commonly taken as a measure of viable cells.
For the compound `COc1cc(-c2nnc(SCC(=O)Nc3ccccc3C)n2N)cc(OC)c1OC`, the negative-log IC50 (pIC50) is below 4.00.
The same measure, in the same setting: under `COc1cc(-c2nnc(SCC(=O)NCCc3ccc(Cl)cc3)n2N)cc(OC)c1OC` stands below 4.00; under `COc1cc(-c2nnc(SCC(=O)c3ccccc3)n2N)cc(OC)c1OC`, 5.11; under `COc1cc(-c2nnc(SCC(=O)c3ccc(C(F)(F)F)cc3)n2N)cc(OC)c1OC`, below 4.00.
Take `COc1cc(-c2nnc(SCC(=O)c3ccc(Br)cc3)n2N)cc(OC)c1OC`: the pIC50 is 4.03.
On the same count and under the same terms, next, `COc1cc(-c2nnc(SCC(=O)Nc3ccccc3)n2N)cc(OC)c1OC`: 4.30; `COc1cc(NC(=O)CSc2nnc(-c3cc(OC)c(OC)c(OC)c3)n2N)cc(OC)c1OC`: below 4.00; `COc1cc(-c2nnc(SCC(=O)NCc3ccc(C)cc3)n2N)cc(OC)c1OC`: below 4.00.
As for `COc1cc(-c2nnc(SCC(=O)Nc3ccc(C)cc3)n2N)cc(OC)c1OC`, the pIC50 was below 4.00.
Same read-out and setting: under `COc1ccc(CNC(=O)CSc2nnc(-c3cc(OC)c(OC)c(OC)c3)n2N)cc1OC` stands below 4.00; under `COc1cc(-c2nnc(SCC(=O)NCc3ccc(Cl)cc3)n2N)cc(OC)c1OC`, below 4.00; under `COc1cc(-c2nnc(SCC(=O)c3ccc(F)cc3)n2N)cc(OC)c1OC`, 4.04.
On the same count and under the same terms, under `COc1cc(-c2nnc(SCC(=O)c3ccccc3F)n2N)cc(OC)c1OC` stands 4.65.

A further test has as its system HeLa. Nature of the test: Antiproliferative activity against human HeLa cells measured after 48 hrs by MTT assay.
Details: not given
Format: functional, cell-based.
`COc1cc(-c2nnc(SCC(=O)Nc3ccccc3C)n2N)cc(OC)c1OC` showed a pIC50 below 4.00.
On the same count and under the same terms, under `COc1cc(-c2nnc(SCC(=O)NCCc3ccc(Cl)cc3)n2N)cc(OC)c1OC` stands 4.10.
The same measure, in the same setting: under `COc1cc(-c2nnc(SCC(=O)c3ccccc3)n2N)cc(OC)c1OC` stands below 4.00.
`COc1cc(-c2nnc(SCC(=O)c3ccc(C(F)(F)F)cc3)n2N)cc(OC)c1OC` showed a pIC50 of 5.47.
On the same count and under the same terms, under `COc1cc(-c2nnc(SCC(=O)c3ccc(Br)cc3)n2N)cc(OC)c1OC` stands 4.98; under `COc1cc(-c2nnc(SCC(=O)Nc3ccccc3)n2N)cc(OC)c1OC`, 5.08.
Regarding `COc1cc(NC(=O)CSc2nnc(-c3cc(OC)c(OC)c(OC)c3)n2N)cc(OC)c1OC`, the pIC50 was below 4.00.
The same measure, in the same setting: under `COc1cc(-c2nnc(SCC(=O)NCc3ccc(C)cc3)n2N)cc(OC)c1OC` stands below 4.00; under `COc1cc(-c2nnc(SCC(=O)Nc3ccc(C)cc3)n2N)cc(OC)c1OC`, 5.32; under `COc1ccc(CNC(=O)CSc2nnc(-c3cc(OC)c(OC)c(OC)c3)n2N)cc1OC`, below 4.00.
On the same count and under the same terms, next, `COc1cc(-c2nnc(SCC(=O)NCc3ccc(Cl)cc3)n2N)cc(OC)c1OC`: below 4.00.
On the same count and under the same terms, under `COc1cc(-c2nnc(SCC(=O)c3ccc(F)cc3)n2N)cc(OC)c1OC` stands 4.68.
In the case of `COc1cc(-c2nnc(SCC(=O)c3ccccc3F)n2N)cc(OC)c1OC`, the pIC50 was 4.10.

System in the next test: not listed separately
Description: Antiproliferative activity against human HCT116 cells measured after 48 hrs by MTT assay. In kind it is functional, cell-based. The following applies: HCT-116, 48 h.
For `COc1cc(-c2nnc(SCC(=O)Nc3ccccc3C)n2N)cc(OC)c1OC`, the pIC50 is below 4.00.
Same read-out and setting: next, `COc1cc(-c2nnc(SCC(=O)NCCc3ccc(Cl)cc3)n2N)cc(OC)c1OC`: 4.40; `COc1cc(-c2nnc(SCC(=O)c3ccccc3)n2N)cc(OC)c1OC`: 4.28.
The compound `COc1cc(-c2nnc(SCC(=O)c3ccc(C(F)(F)F)cc3)n2N)cc(OC)c1OC` gave a pIC50 of 4.78.
Same read-out and setting: under `COc1cc(-c2nnc(SCC(=O)c3ccc(Br)cc3)n2N)cc(OC)c1OC` stands 5.03.
The same measure, in the same setting: next, `COc1cc(-c2nnc(SCC(=O)Nc3ccccc3)n2N)cc(OC)c1OC`: 5.76; `COc1cc(NC(=O)CSc2nnc(-c3cc(OC)c(OC)c(OC)c3)n2N)cc(OC)c1OC`: below 4.00; `COc1cc(-c2nnc(SCC(=O)NCc3ccc(C)cc3)n2N)cc(OC)c1OC`: below 4.00.
Same read-out and setting: next, `COc1cc(-c2nnc(SCC(=O)Nc3ccc(C)cc3)n2N)cc(OC)c1OC`: 5.46; `COc1ccc(CNC(=O)CSc2nnc(-c3cc(OC)c(OC)c(OC)c3)n2N)cc1OC`: below 4.00.
In turn, `COc1cc(-c2nnc(SCC(=O)NCc3ccc(Cl)cc3)n2N)cc(OC)c1OC` gave a pIC50 below 4.00.
Still for that read-out and setting: next, `COc1cc(-c2nnc(SCC(=O)c3ccc(F)cc3)n2N)cc(OC)c1OC`: 5.49.
On the same count and under the same terms, next, `COc1cc(-c2nnc(SCC(=O)c3ccccc3F)n2N)cc(OC)c1OC`: 4.97.
